{"source": "patent US9884866B2", "about": "“Immunomodulators and immunomodulator conjugates” (REGENTS OF THE UNIVERSITY OF MINNESOTA, priority 2014, dated 2018)", "test_system": "Bone marrow derived dendritic cells (BMDC)", "experiment": "Measurement of proinflammatory cytokines with cytometric bead assay in BMDC", "format": "cell-based, C57BL/6 mice", "settings": "BMDC stimulated with 30 μM of compound for 3 days; supernatant", "experimental": "Measurement of Proimflammatory Cytokines with Cytometric Bead Assay:\nBone marrow derived dendritic cells (BMDC) were generated by isolating a single cell suspension of marrow from the femur of C57BL/6 mice (6-8 weeks of age). Red blood cells were lysed with 0.83% NH4Cl, 0.1% KHCO3 and […] cells were seeded in each of well of a 6 well plate in complete RPMI media (Invitrogen, Grand Island, N.Y.), supplemented with mouse 20 ng/ml Granulocyte-Macrophage Colony Stimulating Factor (PeproTech, Rocky Hill, N.J.). After 6 days after culture, BMDC were stimulated with 30 μM of compound for 3 days. 25 μL of supernatant was then removed and assayed for TNFα, IL-12p40, IL-1β and IL-10 using a flow cytometric bead array according to the manufacturers' instructions (BD Bioscience, San Jose, Calif.). Controls were performed using the addition of media and carrier with no drug. Flow cytometry was performed on a FACS canto-II (BD Bioscience) and data were analyzed using Flowjo software (Tree Star, Inc. Ashland, Oreg.).", "data": [{"compound": "CCCCc1nc2c(N)nc3cc(NS(=O)(=O)c4ccccc4)ccc3c2n1CC(C)O", "note": "(centres unmarked) [Compound 543]", "values": [{"measurement": "IL-1b", "value": "128 ± 13", "unit": "pg/mL"}, {"measurement": "IL-10", "value": "151 ± 24", "unit": "pg/mL"}, {"measurement": "IL-12/23p40", "value": "57 ± 8", "unit": "pg/mL"}, {"measurement": "TNF", "value": "725 ± 77", "unit": "pg/mL"}]}, {"compound": "CCCCc1nc2c(N)nc3cc(S(=O)(=O)c4ccccc4)ccc3c2n1CC(C)O", "note": "(centres unmarked) [Compound 548, 4-amino-2-butyl-1-(2-hydroxypropyl)-7-benzenesulphonyl-1H-imidazo[4,5-c]quinoline]", "values": [{"measurement": "IL-1b", "value": "19 ± 2", "unit": "pg/mL"}, {"measurement": "IL-10", "value": "29 ± 2", "unit": "pg/mL"}, {"measurement": "IL-12/23p40", "value": "176 ± 25", "unit": "pg/mL"}, {"measurement": "TNF", "value": "1456 ± 111", "unit": "pg/mL"}]}]}
